Measurements published in patent US12318403B2, “2′3′-cyclic dinucleotides and prodrugs thereof” (INSTITUTE OF ORGANIC CHEMISTRY AND BIOCHEMISTRY ASCR, V.V.I., priority 2019, dated 2025).
Like-named read-outs stand apart in the source and are kept apart here.

Tests used:
[1] = molecular target: human wild type STING (WT STING) (Homo sapiens, UniProt Q86WV6, H232R); assay: 293T WT STING standard reporter assay; type: cell-based; conditions: 293T WT STING EC50, 293T wtSTING-FL cells; standard reporter assay without digitonin; 7 hours; ISRE firefly luciferase
human wild type STING (WT STING), sequence (Q86WV6 whole entry H232R): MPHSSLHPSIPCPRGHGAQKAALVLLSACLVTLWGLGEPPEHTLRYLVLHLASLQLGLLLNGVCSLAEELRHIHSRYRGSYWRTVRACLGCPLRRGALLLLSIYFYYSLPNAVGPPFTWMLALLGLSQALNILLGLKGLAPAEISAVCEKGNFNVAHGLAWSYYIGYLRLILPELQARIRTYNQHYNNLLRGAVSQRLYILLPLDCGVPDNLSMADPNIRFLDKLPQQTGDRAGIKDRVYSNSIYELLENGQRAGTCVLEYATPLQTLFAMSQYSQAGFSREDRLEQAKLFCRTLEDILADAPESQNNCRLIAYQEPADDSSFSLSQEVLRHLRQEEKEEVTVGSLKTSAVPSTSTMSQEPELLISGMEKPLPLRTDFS

[2] = tested on: peripheral blood mononuclear cell (PBMC); assay: Peripheral blood mononuclear cell assay; conditions: compounds 1h, washed, 15 hour incubation, average of one to four donors
Experimental: Selected compounds were tested in an in vitro peripheral blood mononuclear cell (PBMC) assay. […] Serially diluted tested compounds were added to wells in 50 μl of cultivation medium and cells were incubated with the compounds for 1h at 37° C. with 5% CO2. Plates with cells were then spun 500 g for 5 minutes and the medium was removed. Cells were washed twice with the cell culture medium by the use of centrifugation and gently resuspended in 100 μl medium without compounds. After 15 hour incubation at 37° C. with 5% CO2, the cell culture medium was collected and the levels of interferon-alpha (INF-α), interferon-gamma (INF-γ) and tumor necrosis factor-alpha (TNF-α) were determined with ProcartaPlex Assays (ThermoFisher, Waltham, USA) and MAGPIX System (Merck KGaA, Darmstadt, Germany). […] Values reported are an average of runs from one to four donors.

[3] = read-out: PBMC EC50 IFN-α, interferon-alpha level in medium
[4] = read-out: PBMC EC50 IFN-γ, interferon-gamma level in medium
[5] = read-out: PBMC EC50 TNF-α, tumor necrosis factor-alpha level in medium

## CCCCCCCC(=O)OCSP1(=O)CO[C@H]2[C@@H](F)[C@H](n3cnc4c(N)ncnc43)O[C@@H]2COP(=O)(SCOC(=O)CCCCCCC)O[C@@H]2[C@H](F)[C@@H](CO1)O[C@H]2n1cnc2c(=O)[nH]c(N)nc21 (stereo partly drawn) [Compound 69b, {[(1S,6R,8R,9R,10R,16R,18R,19R)-18-(2-amino-6-oxo-6,9-dihydro-1H-purin-9-yl)-8-(6-amino-9H-purin-9-yl)-9,19-difluoro-13-{[(octanoyloxy)methyl]sulfanyl}-3,13-dioxo-2,4,7,11,14,17-hexaoxa-3λ^5,13λ^5-diphosphatricyclo[14.2.1.0^6,10]nonadecan-3-yl]sulfanyl}methyl octanoate]
[1]
  EC50: 200 nM

## CCCCCCCCCCCC(=O)OCSP1(=O)OC[C@H]2O[C@@H](n3cnc4c(N)ncnc43)[C@H](F)[C@@H]2OCP(=O)(O)OC[C@H]2O[C@@H](n3cnc4c(=O)[nH]cnc43)[C@H](O1)[C@@H]2F (single isomer, unassigned) [Compound 56b]
[2]; [3]
  EC50: 3000 nM
[2]; [4]
  EC50: 1300 nM
[2]; [5]
  EC50: 2000 nM

## CCCCCCCCCCCC(=O)Oc1ccc(CSP2(=O)OC[C@H]3O[C@@H](n4cnc5c(N)ncnc54)[C@H](F)[C@@H]3OCP(=O)(O)OC[C@H]3O[C@@H](n4cnc5c(=O)[nH]c(N)nc54)[C@H](O2)[C@@H]3F)cc1 (single isomer, unassigned) [Compound 38a]
[2]; [3]
  EC50: 1400 nM
[2]; [4]
  EC50: 2600 nM
[2]; [5]
  EC50: 1400 nM

## CCCCCC(=O)Oc1ccc(CSP2(=O)CO[C@H]3[C@@H](F)[C@H](n4cnc5c(N)ncnc54)O[C@@H]3COP(=O)(O)O[C@@H]3[C@H](F)[C@@H](CO2)O[C@H]3n2cnc3c(=O)[nH]c(N)nc32)cc1 (single isomer, unassigned) [Compound 42b]
[1]
  EC50: 200 nM

## CCCCCCCCCC(=O)Oc1ccc(CSP2(=O)CO[C@H]3[C@@H](F)[C@H](n4cnc5c(N)ncnc54)O[C@@H]3COP(=O)(O)O[C@@H]3[C@H](F)[C@@H](CO2)O[C@H]3n2cnc3c(=O)[nH]c(N)nc32)cc1 (single isomer, unassigned) [Compound 46a]
[1]
  EC50: 60 nM

## CCCCCC(=O)Oc1ccc(C(=O)Oc2ccc(CSP3(=O)CO[C@H]4[C@@H](F)[C@H](n5cnc6c(N)ncnc65)O[C@@H]4COP(=O)(O)O[C@@H]4[C@H](F)[C@@H](CO3)O[C@H]4n3cnc4c(=O)[nH]c(N)nc43)cc2)cc1 (single isomer, unassigned) [Compound 49a]
[1]
  EC50: 1800 nM

## CC(C)(C)C(=O)OCOc1ccc(CSP2(=O)OC[C@H]3O[C@@H](n4cnc5c(N)ncnc54)[C@H](F)[C@@H]3OCP(=O)(O)OC[C@H]3O[C@@H](n4cnc5c(=O)[nH]c(N)nc54)[C@H](O2)[C@@H]3F)cc1 (single isomer, unassigned) [Compound 39b]
[2]; [3]
  EC50: 900 nM
[2]; [4]
  EC50: 1400 nM
[2]; [5]
  EC50: 1000 nM

## CCCCCCCCCCCCOC(=O)OCSP1(=O)OC[C@H]2O[C@@H](n3cnc4c(N)ncnc43)[C@H](F)[C@@H]2OCP(=O)(O)OC[C@H]2O[C@@H](n3cnc4c(=O)[nH]cnc43)[C@H](O1)[C@@H]2F (stereo partly drawn) [Compound 58b, {[(1S,6R,8R,9R,10R,16R,18R,19R)-8-(6-amino-9H-purin-9-yl)-9,19-difluoro-13-hydroxy-3,13-dioxo-18-(6-oxo-6,9-dihydro-1H-purin-9-yl)-2,4,7,11,14,17-hexaoxa-3λ^5,13λ^5-diphosphatricyclo[14.2.1.0^6,10]nonadecan-3-yl]sulfanyl}methyl dodecyl carbonate]
[2]; [3]
  EC50: 1200 nM
[2]; [4]
  EC50: 1900 nM
[2]; [5]
  EC50: 1300 nM

## CCCCCCCCCCCCCCCC(=O)OCSP1(=O)OC[C@H]2O[C@@H](n3cnc4c(N)ncnc43)[C@H](F)[C@@H]2OCP(=O)(O)OC[C@H]2O[C@@H](n3cnc4c(=O)[nH]cnc43)[C@H](O1)[C@@H]2F (single isomer, unassigned) [Compound 64b]
[2]; [3]
  EC50: 1400 nM
[2]; [4]
  EC50: 800 nM
[2]; [5]
  EC50: 2000 nM

## CCCCCCCCCCCC(=O)OCSP1(=O)OC[C@H]2O[C@@H](n3cnc4c(N)ncnc43)[C@H](F)[C@@H]2OCP(=O)(O)OC[C@H]2O[C@@H](n3cnc4c(=O)[nH]cnc43)[C@H](O1)[C@@H]2F (single isomer, unassigned) [Compound 56a]
[2]; [3]
  EC50: 1600 nM
[2]; [4]
  EC50: 2200 nM
[2]; [5]
  EC50: 1800 nM

## CCCCCCCCCCCCCC(=O)OCSP1(=O)OC[C@H]2O[C@@H](n3cnc4c(N)ncnc43)[C@H](F)[C@@H]2OCP(=O)(O)OC[C@H]2O[C@@H](n3cnc4c(=O)[nH]cnc43)[C@H](O1)[C@@H]2F (single isomer, unassigned) [Compound 68a]
[2]; [3]
  EC50: 900 nM
[2]; [4]
  EC50: 1000 nM
[2]; [5]
  EC50: 600 nM

## CCCCCCCCCCCC(=O)OCSP1(=O)OC[C@H]2O[C@@H](n3cnc4c(N)ncnc43)[C@H](F)[C@@H]2OCP(=O)(O)OC[C@H]2O[C@@H](n3cnc4c(=O)[nH]c(N)nc43)[C@H](O1)[C@@H]2F (single isomer, unassigned) [Compound 57b]
[2]; [3]
  EC50: 1700 nM
[2]; [4]
  EC50: 2500 nM
[2]; [5]
  EC50: 1600 nM

## CCCCCCCC(=O)OCSP1(=O)OC[C@H]2O[C@@H](n3cnc4c(N)ncnc43)[C@H](F)[C@@H]2OCP(=O)(O)OC[C@H]2O[C@@H](n3cnc4c(=O)[nH]cnc43)[C@H](O1)[C@@H]2F (stereo partly drawn) [Compound 63b, {[(1S,6R,8R,9R,10R,16R,18R,19R)-8-(6-amino-9H-purin-9-yl)-9,19-difluoro-13-hydroxy-3,13-dioxo-18-(6-oxo-6,9-dihydro-1H-purin-9-yl)-2,4,7,11,14,17-hexaoxa-3λ^5,13λ^5-diphosphatricyclo[14.2.1.0^6,10]nonadecan-3-yl]sulfanyl}methyl octanoate]
[2]; [3]
  EC50: 9000 nM
[2]; [4]
  EC50: 3700 nM
[2]; [5]
  EC50: 8000 nM

## CCCCCCCCCCCCOC(=O)OCSP1(=O)OC[C@H]2O[C@@H](n3cnc4c(N)ncnc43)[C@H](F)[C@@H]2OCP(=O)(O)OC[C@H]2O[C@@H](n3cnc4c(=O)[nH]c(N)nc43)[C@H](O1)[C@@H]2F (stereo partly drawn) [Compound 59b, {[(1S,6R,8R,9R,10R,16R,18R,19R)-18-(2-amino-6-oxo-6,9-dihydro-1H-purin-9-yl)-8-(6-amino-9H-purin-9-yl)-9,19-difluoro-13-hydroxy-3,13-dioxo-2,4,7,11,14,17-hexaoxa-3λ^5,13λ^5-diphosphatricyclo[14.2.1.0^6,10]nonadecan-3-yl]sulfanyl}methyl dodecyl carbonate]
[2]; [3]
  EC50: 1800 nM
[2]; [4]
  EC50: 2200 nM
[2]; [5]
  EC50: 2100 nM

## CCCCCCCCCC(=O)Oc1ccc(CSP2(=O)OC[C@H]3O[C@@H](n4cnc5c(N)ncnc54)[C@H](F)[C@@H]3OCP(=O)(O)OC[C@H]3O[C@@H](n4cnc5c(=O)[nH]c(N)nc54)[C@H](O2)[C@@H]3F)cc1 (single isomer, unassigned) [Compound 35a]
[2]; [3]
  EC50: 2600 nM
[2]; [4]
  EC50: 3200 nM
[2]; [5]
  EC50: 1900 nM

## Nc1nc2c(ncn2[C@@H]2O[C@@H]3COP(=O)(O)O[C@H]4[C@@H](O)[C@H](n5cnc6c(N)ncnc65)O[C@@H]4COP(=O)(O)O[C@@H]2[C@@H]3O)c(=O)[nH]1 [2′3′-cGAMP, c[G(2′,5′)pA(3′,5′)p], reference compound]
[2]; [3]
  EC50: 300000 nM
[2]; [4]
  EC50: 164000 nM
[2]; [5]
  EC50: 210000 nM

## CCCCCCCCCCCCCCCC(=O)OCSP1(=O)OC[C@H]2O[C@@H](n3cnc4c(N)ncnc43)[C@H](F)[C@@H]2OCP(=O)(O)OC[C@H]2O[C@@H](n3cnc4c(=O)[nH]cnc43)[C@H](O1)[C@@H]2F (single isomer, unassigned) [Compound 64a]
[2]; [3]
  EC50: 600 nM
[2]; [4]
  EC50: 2600 nM
[2]; [5]
  EC50: 400 nM

## CCCCCC(=O)Oc1ccc(C(=O)Oc2ccc(CSP3(=O)OC[C@H]4O[C@@H](n5cnc6c(N)ncnc65)[C@H](F)[C@@H]4OCP(=O)(O)OC[C@H]4O[C@@H](n5cnc6c(=O)[nH]c(N)nc65)[C@H](O3)[C@@H]4F)cc2)cc1 (single isomer, unassigned) [Compound 40b]
[2]; [3]
  EC50: 8100 nM
[2]; [4]
  EC50: 10400 nM
[2]; [5]
  EC50: 10400 nM

## CCCCCCCCCCCCCCCCCCOC(=O)OCSP1(=O)OC[C@H]2O[C@@H](n3cnc4c(N)ncnc43)[C@H](F)[C@@H]2OCP(=O)(O)OC[C@H]2O[C@@H](n3cnc4c(=O)[nH]cnc43)[C@H](O1)[C@@H]2F (stereo partly drawn) [Compound 74b, {[(1S,6R,8R,9R,10R,16R,18R,19R)-8-(6-amino-9H-purin-9-yl)-9,19-difluoro-13-hydroxy-3,13-dioxo-18-(6-oxo-6,9-dihydro-1H-purin-9-yl)-2,4,7,11,14,17-hexaoxa-3λ^5,13λ^5-diphosphatricyclo[14.2.1.0^6,10]nonadecan-3-yl]sulfanyl}methyl octadecyl carbonate]
[2]; [3]
  EC50: 2200 nM
[2]; [4]
  EC50: 2400 nM
[2]; [5]
  EC50: 3000 nM

## CCCCCCCCCCCCCCOC(=O)OCSP1(=O)OC[C@H]2O[C@@H](n3cnc4c(N)ncnc43)[C@H](F)[C@@H]2OCP(=O)(O)OC[C@H]2O[C@@H](n3cnc4c(=O)[nH]cnc43)[C@H](O1)[C@@H]2F (stereo partly drawn) [Compound 72b, {[(1S,6R,8R,9R,10R,16R,18R,19R)-8-(6-amino-9H-purin-9-yl)-9,19-difluoro-13-hydroxy-3,13-dioxo-18-(6-oxo-6,9-dihydro-1H-purin-9-yl)-2,4,7,11,14,17-hexaoxa-3λ^5,13λ^5-diphosphatricyclo[14.2.1.0^6,10]nonadecan-3-yl]sulfanyl}methyl tetradecyl carbonate]
[2]; [3]
  EC50: 1700 nM
[2]; [4]
  EC50: 800 nM
[2]; [5]
  EC50: 1600 nM

## CCCCCCCCCCCCCCCCOC(=O)OCSP1(=O)OC[C@H]2O[C@@H](n3cnc4c(N)ncnc43)[C@H](F)[C@@H]2OCP(=O)(O)OC[C@H]2O[C@@H](n3cnc4c(=O)[nH]cnc43)[C@H](O1)[C@@H]2F (stereo partly drawn) [Compound 73b, {[(1S,6R,8R,9R,10R,16R,18R,19R)-8-(6-amino-9H-purin-9-yl)-9,19-difluoro-13-hydroxy-3,13-dioxo-18-(6-oxo-6,9-dihydro-1H-purin-9-yl)-2,4,7,11,14,17-hexaoxa-3λ^5,13λ^5-diphosphatricyclo[14.2.1.0^6,10]nonadecan-3-yl]sulfanyl}methyl hexadecyl carbonate]
[2]; [3]
  EC50: 3000 nM
[2]; [4]
  EC50: 7000 nM
[2]; [5]
  EC50: 4000 nM
